In US5135849A, “In-vitro methods for identifying compositions which are agonists and antagonists of androgens” (priority 1989, dated 1992):

Tests used:
androgen receptor = target: T1, androgen receptor (Homo sapiens, UniProt P10275, T878A); assay: Competition for androgen receptors with 3H-testosterone in LNCaP cytosol-nuclear extracts (RBA); type: binding; settings: Table II, 5α-DHT = 100; 6×10^-9 M 3H-testosterone
T1 construct: the presence of specific androgen receptors in LNCaP cells; endogenous in cells; extract or intact cells for the saturation analysis
Description: (§1) Steroid receptors measurement: The presence of intracellular sex steroid binding proteins was investigated in whole cell extracts as well as in intact cells. Cytosolic and nuclear extracts were obtained after centrifugation (105,000 g, 45 min.) of a sonicated cellular suspension in TKE buffer (10 mM Tris, 500 mM KCl, 0.5 mM EDTA, pH 7.4). Aliquots of this extract were incubated for 18 hours at 4° C. with increasing concentrations (2×10^- M to 2×10^-8 M) of labelled steroids, with and without a 200-fold excess of the corresponding unlabelled steroid. Bound and free fractions were separated by dextran-coated charcoal adsorption. Intact cells grown in monolayer culture were assayed for specific steroid binding [Olea-Serrano et al., Eur. J. Cancer Clin. Oncol. 21:965-973 (1983)]. Briefly, the cells were incubated in 12-well plates during 50 minutes at 37° C. in DME containing the labelled steroid with and without excess of cold competitor. The range of concentrations used was the same as that in the cytosolic-nuclear extract assay. […] The intracellular radioactivity was extracted with ethanol after ice-cold PBS washing. In both types of experiments, Scatchard analysis of the saturation data was used to quantify the maximal binding capacity (Bmax) and the affinity parameters (dissociation constant, Kd) using the SCAFIT program [Munson et al., Anal. Biochem. 107:220-239 (1980)].
Cytosol-nuclear extracts were used to study competition for androgen receptors. […] The relative binding affinity (RBA) was calculated from the equation: […]

LNCaP cells [1] = assay: Phase 1 protocol to identify androgen agonist properties (LNCaP cell proliferation in CDHS medium); type: cell-based, human; settings: for PHASE 1 CELL COUNT: final cell number per well at the optimal test conc., 10% CDHS; for CHARACTERISTICS: classification from Phase 1 and Phase 2 protocols
From the text: This protocol measures the potential agonistic properties of the substance under test. All manipulations are to be carried out under sterile conditions using disposable plastic tissue culture multiwell plates with all manipulations preferrably being performed in a tissue culture hood.
1. The cell line of choice is the LNCaP-FGC cell culture, an androgen-sensitive prostate tumor cell line. The LNaP cell line is routinely grown in 5% fetal bovine serum--supplemented Dulbecco's modified Eagle minimal essential medium (hereinafter "5% FBS/DME"), at 37° C. in a 95% air--5% CO2 atmosphere.
2. The cultured cells growing in 5% FBS/DME are harvested by treatment with trypsin (1:250)--EDTA (0.2%). The cells are detached by brief exposure to trypsin for about two minutes. To avoid excessive proteolysis, the reaction is quenched by addition of equal volumes of 5% FBS/DME. The resulting cell suspension is collected into a sterile centrifuge tube and resuspended by pipetting gently. The aliquots of this cell suspension thus obtained are dispersed by means of a Skatron dispenser into individual wells containing the seedling medium (1 ml of 5% FBS/DME per well) of a multiwell plate. Each final prepared suspension preferably contains 50,000 cells in a volume of 1.0 ml. It is desirable that the number of cells be counted and verified by means of a Coulter Counter (Coulter Electronics, Hialeah, FL).
The number of wells in each plate will correspond to the number of concentrations per test substances to be evaluated and thus is merely a question of choice or convenience to the user. Into each well, 25 microliter (hereinafter "ul") aliquots of the prepared cell suspension are added using a 1.0 ml syringe fitted with a 19 gauge needle attached to a repetitive Dunn pipetter (Skatron Dispenser). The microtiter plate is then gently shaken to avoid unequal cell distribution within each individual well. The seeded cells are then allowed to attach to the plastic surface of the well proper over a period of 24-72 hours' duration after which the fluid is changed to the experimental maintaining medium.
3 At the time of test, all the seeded cells in each well of the multiwell plate receive 10% heat inactivated--charcoal-dextran human stripped serum (CDHS) in DME at a volume of 0.9 ml per well. Although higher concentrations of CDHS may be utilized up to and including 40% concentrations, the 10% concentration is most preferred.
5. To the other prepared (seeded) wells, 100 ul of the test substance to be evaluated is added as a 10X stock solution to achieve final concentrations ranging from 10^-5 M to at least 10^-12 M. The substance under test is preferably prepared as a stock solution in ethanol, most preferrably as a 10^-3 M solution. All dilutions from the stock preparation are made using DME. The ethanol concentration in the culture medium should be kept below […] by volume. This preparative technique and precaution avoids the need to filter the various volumes of test substance to achieve sterility. This is particularly valuable because steroidal compositions are known to become adsorbed to the commercially obtained filter membranes used for sterilization. The addition of the test substance in appropriate concentrations to the cultured cells and the maintaining medium forms a series of individual reaction mixtures, each of which is varied only by the concentration of the test substance present in the well.
6. After the series of individual reaction mixtures are formed, all of the cultured cells under test in each well of the microtiter plate are incubated at 37° C. preferably in an atmosphere of 5% CO2 /95% air under saturating humidity. During this incubation time, it is desired and preferred that the cultured cells employed in the test be maintained in an atmosphere most advantageous for survival and growth of that cell line. The incubation period preferably is in the range of from 5 to 7 days' duration.

[2] = system: 3H-E2 binding in LNCaP cells; assay: Competition with 3H-E2 binding in LNCaP cells; design: species or system human
Description: as §1

LNCaP cells [3] = assay: Proliferation rate (doubling time) of LNCaP cells in 10% CDHS; type: cell-based, human; settings: compared with 5α-DHT
Description: 8. To obtain reproducible, accurate, and reliable data consistently using this protocol, a series of quality assurance measures should be employed. […] These goals are achieved using the optimal 5-7 day incubation period. […] For this innoculum, cells are harvested every 24-48 hours (preferably as triplicate samples) until the entire 5-7 day incubation period expires. A good estimate of the proliferation rate is the mean generation time, "tD ". tD is calculated from the equation α=1/txln Ct /Co , where Co is the initial cell number, Ct is the cell number at time-t, and α is the instantaneous cell proliferation constant (tD is the value ln Ct /Co x would have when Ct =2Co) "tD " is expressed in time units, i.e., hr. The slopes of the different growth curves are calculated by fitting the experimental data to a straight line by regression analysis of the pairs ln cell numbers/time. to is defined as the moment at which the seeding medium is replaced by the maintaining medium.
The inhibitory effect of CD human sera was not instantaneous; at the end of 3 to 4 days the population increase was halted and remained stable for up to 30 days without media changes.

LNCaP cells [4] = assay: Phase 2 protocol for androgen antagonistic properties (LNCaP proliferation with 3×10^-10 M 5α-DHT plus test substance); settings: Phase 2 protocol

T1 sequence (P10275 whole entry T878A): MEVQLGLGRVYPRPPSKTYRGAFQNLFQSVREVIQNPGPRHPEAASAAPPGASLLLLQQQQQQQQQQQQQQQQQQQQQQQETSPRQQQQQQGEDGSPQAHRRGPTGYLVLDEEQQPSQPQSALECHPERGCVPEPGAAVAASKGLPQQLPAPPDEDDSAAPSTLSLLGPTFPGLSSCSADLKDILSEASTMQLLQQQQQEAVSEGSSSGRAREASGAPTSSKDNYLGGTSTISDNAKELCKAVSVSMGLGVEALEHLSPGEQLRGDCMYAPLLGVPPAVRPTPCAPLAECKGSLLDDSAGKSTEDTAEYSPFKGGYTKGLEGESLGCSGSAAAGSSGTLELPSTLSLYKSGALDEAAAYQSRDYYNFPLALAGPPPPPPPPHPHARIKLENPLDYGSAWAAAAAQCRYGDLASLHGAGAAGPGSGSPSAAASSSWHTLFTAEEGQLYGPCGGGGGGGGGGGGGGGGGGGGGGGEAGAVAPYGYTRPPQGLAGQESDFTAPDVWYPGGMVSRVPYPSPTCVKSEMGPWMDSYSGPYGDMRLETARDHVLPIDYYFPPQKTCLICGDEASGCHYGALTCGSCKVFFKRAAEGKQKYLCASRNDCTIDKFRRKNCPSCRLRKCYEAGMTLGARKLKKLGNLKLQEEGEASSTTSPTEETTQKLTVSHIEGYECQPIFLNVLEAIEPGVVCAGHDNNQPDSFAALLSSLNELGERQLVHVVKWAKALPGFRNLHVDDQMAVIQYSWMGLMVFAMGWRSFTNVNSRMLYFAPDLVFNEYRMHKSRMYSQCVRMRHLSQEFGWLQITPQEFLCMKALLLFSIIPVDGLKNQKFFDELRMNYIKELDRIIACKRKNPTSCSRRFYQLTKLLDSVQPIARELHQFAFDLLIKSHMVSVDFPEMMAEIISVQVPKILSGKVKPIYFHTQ

Structure (SMILES) | RBA (relative binding affinity to the androgen receptor) (androgen receptor) | PHASE 1 CELL COUNT (LNCaP cells [1]) | competition with 3H-E2 binding, in words [2] | population doubling time, in words (LNCaP cells [3]) | antagonistic activity, in words (LNCaP cells [4]) | CHARACTERISTICS (LNCaP cells [1]) | CHARACTERISTICS (LNCaP cells [1]; listed as estradiol-17β)
C#C[C@]1(O)CC[C@H]2[C@@H]3CCc4cc(O)ccc4[C@H]3[C@@H](OC)C[C@@]21C [R2858, 11β-methoxy-19-nor-17a-1,3,5(10)-trien-20-yne-3,17-diol] | < 0.01 | 5 × 10^4 | did not compete |  |  |  | 
C[C@]12CC[C@@H]3c4ccc(O)cc4CC[C@H]3[C@@H]1CC[C@@H]2O [estradiol 17β, estra-1,3,5(10)-triene-3,17-diol] |  | 4.0 × 10^5 |  | slightly shorter population doubling time | no antagonistic activity | full agonist | full agonists
